From BindingDB's records for doi:10.1016/s0960-894x(02)00064-1 (University of Lyon 1, 2002)

How the values were obtained:
[1] = target: Toxoplasma gondii purine nucleoside phosphorylase (Toxoplasma gondii); test: Compound was evaluated for its binding affinity against Toxoplasma gondii purine nucleoside phosphorylase of virulent strain RH (value indicates competitive inhibition)
[2] = target: Toxoplasma gondii purine nucleoside phosphorylase (Toxoplasma gondii); test: as above; remark: listed apart in the source
[3] = target: Toxoplasma gondii purine nucleoside phosphorylase (Toxoplasma gondii); test: Compound was evaluated for its binding affinity against Toxoplasma gondii purine nucleoside phosphorylase from cystic strain ME 49 (value indicates competitive inhibition)
[4] = target: Toxoplasma gondii purine nucleoside phosphorylase (Toxoplasma gondii); test: Compound was evaluated for its binding affinity against Toxoplasma gondii purine nucleoside phosphorylase of virulent strain RH (value indicates Non competitive inhibition)
[5] = target: Toxoplasma gondii purine nucleoside phosphorylase (Toxoplasma gondii); test: Compound was evaluated for its binding affinity against Toxoplasma gondii purine nucleoside phosphorylase from cystic strain ME 49 (value indicates Non competitive inhibition)

## O=c1[nH]cnc2c1cnn2[C@@H]1O[C@H](CO)[C@@H](O)[C@H]1O
[1]
  Ki: 2000 µM
[2]
  Ki: 1800 µM

## Cc1nc2c(n1Cc1ccccc1)C(=O)C=CC2=O [1-Benzyl-2-methyl-1H-benzoimidazole-4,7-dione]
[3]
  Ki: 300 µM
[1]
  Ki: 1050 µM

## O=C1C=CC(=O)c2c1nc(Cc1ccccc1)n2Cc1ccccc1 [1,2-Dibenzyl-1H-benzoimidazole-4,7-dione]
[3]
  Ki: 350 µM
[2]
  Ki: 670 µM

## Cn1cnc2c1C(=O)C=CC2=O [1-Methyl-1H-benzoimidazole-4,7-dione]
[4]
  Ki: 2210 µM

## O=C1C=CC(=O)c2[nH]cnc21 [1H-Benzoimidazole-4,7-dione]
[5]
  Ki: 550 µM
[4]
  Ki: 1650 µM

## O=C1C=CC(=O)c2c1ncn2Cc1ccc(F)cc1 [1-(4-Fluoro-benzyl)-1H-benzoimidazole-4,7-dione]
[5]
  Ki: 990 µM
[4]
  Ki: 780 µM

## O=C1C=CC(=O)c2c1ncn2Cc1ccccc1F [1-(2-Fluoro-benzyl)-1H-benzoimidazole-4,7-dione]
[5]
  Ki: 1500 µM
[4]
  Ki: 1480 µM

## CCCCn1cnc2c1C(=O)C=CC2=O [1-Butyl-1H-benzoimidazole-4,7-dione]
[5]
  Ki: 560 µM
[4]
  Ki: 2960 µM

## O=C1C=CC(=O)c2c1ncn2Cc1cccc(F)c1 [1-(3-Fluoro-benzyl)-1H-benzoimidazole-4,7-dione]
[5]
  Ki: 520 µM
[4]
  Ki: 990 µM
